Here are results for eleven molecules from ChEMBL document CHEMBL1201862, “PubChem BioAssay data set” (2004).

The structures appear in SMILES notation.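 Method: 48-hour compound exposure of cells in 96-well plates, five concentrations, linear interpolation of endpoints. The concentration for 50% growth inhibition is given as GI50.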 The source made the active and inactive calls. Rule as the data show it: active = GI50 up to about 1.1 µM and inactive = higher.

Test systems include SW-620; COLO 205; SR; DU-145; UO-31; U-251; SK-MEL-5; IGROV-1; Malme-3M; RPMI-8226; EKVX; SNB-75; NCI-H226; HL-60; OVCAR-8; SK-MEL-28; SF-539; NCI-H23; M14; UACC-62.
Common to all, as to test: DTP human tumour cell line panel, 48 h

In the case of `COC(=O)C1(O)c2ccccc2N=C2C(=O)c3ccccc3N21` (stereo not drawn) [METHYLISATOID], the GI50 with SW-620, in the assay with COLO 205, in the assay with SR, in the assay on DU-145, in the assay on UO-31 and in the assay with U-251 was > 100 µM (inactive) throughout. Further, the GI50 in the assay on SK-MEL-5 was 49.8 µM (inactive); with IGROV-1, > 100 µM (inactive); with Malme-3M it was 51.8 µM (inactive); with RPMI-8226, > 100 µM (inactive); in the assay on EKVX, > 100 µM (inactive); with SNB-75 it was > 100 µM (inactive). In addition, the GI50 in the assay on NCI-H226, in the assay with HL-60, in the assay with OVCAR-8, with SK-MEL-28, in the assay with SF-539 and in the assay on NCI-H23 was > 100 µM (inactive) throughout.
`COc1ccc(C2=C(Cl)c3cc(OC)c(OC)cc3C2=O)cc1OC`: the GI50 with SW-620 is 12.7 µM (inactive); with COLO 205, 3.16 µM (inactive); in the assay with SR it was 6.11 µM (inactive); with DU-145 it was 18.7 µM (inactive); in the assay on UO-31, 16.6 µM (inactive); with SK-MEL-5, 15.9 µM (inactive). For the same molecule, the GI50 in the assay on M14 is 4.84 µM (inactive); in the assay with UACC-62, 15.4 µM (inactive); in the assay with IGROV-1, 17.5 µM (inactive); in the assay on Malme-3M, 13.2 µM (inactive); in the assay on RPMI-8226 it was 18.1 µM (inactive); with EKVX, 20.1 µM (inactive). Moreover, the GI50 is 61 µM (inactive) with SNB-75; 38.7 µM (inactive) in the assay on NCI-H226; 1.8 µM (inactive) in the assay with HL-60; 16.9 µM (inactive) with OVCAR-8; 21.3 µM (inactive) in the assay on SF-539; 12 µM (inactive) in the assay on NCI-H23.
As to `S=C(c1c[nH]c2ccccc12)N1CCCCC1`, the GI50 in the assay with SW-620 is > 100 µM (inactive); with COLO 205, > 100 µM (inactive); in the assay on SR, > 100 µM (inactive); in the assay on DU-145 it was > 100 µM (inactive); in the assay on U-251, 64.9 µM (inactive); in the assay with SK-MEL-5 it was 40 µM (inactive). The GI50 in the assay on M14 was > 100 µM (inactive); with UACC-62, > 100 µM (inactive); in the assay with IGROV-1 it was 67.9 µM (inactive); in the assay on Malme-3M, > 100 µM (inactive); in the assay with RPMI-8226, 36.9 µM (inactive); in the assay on EKVX, 85.9 µM (inactive). Further, the GI50 in the assay on NCI-H226 was > 100 µM (inactive); in the assay with HL-60, 70.6 µM (inactive); in the assay on OVCAR-8, > 100 µM (inactive); in the assay on SK-MEL-28, > 100 µM (inactive); with SF-539, > 100 µM (inactive); in the assay on NCI-H23 it was > 100 µM (inactive).
Consider `OCN(CO)c1ccc2c(c1)Cc1cc(F)ccc1-2`, for which the GI50 was 12.4 µM (inactive) in the assay with SW-620; 12.4 µM (inactive) with COLO 205; 22.6 µM (inactive) with SR; 23.2 µM (inactive) with DU-145; 19.6 µM (inactive) in the assay with UO-31; 17.9 µM (inactive) in the assay on U-251. Further, the GI50 is 11.2 µM (inactive) with SK-MEL-5; 21 µM (inactive) in the assay on M14; 16.6 µM (inactive) with UACC-62; 19.3 µM (inactive) with IGROV-1; 18.1 µM (inactive) with Malme-3M; 14.7 µM (inactive) in the assay with EKVX. In addition, the GI50 in the assay on SNB-75 is 19.1 µM (inactive); in the assay on NCI-H226, 15.7 µM (inactive); with HL-60 it was 29.1 µM (inactive); with OVCAR-8, 19.7 µM (inactive); in the assay with SK-MEL-28 it was 24 µM (inactive); in the assay on SF-539, 22.3 µM (inactive). Further, in the assay on NCI-H23, the GI50 was 33.3 µM (inactive).
Turning to `CCC(CCCC[C@H]1CC[C@@H]2CC(=O)C[C@H]12)OC` (stereo partly drawn), the GI50 in the assay with SW-620 was > 100 µM (inactive); with COLO 205, > 100 µM (inactive); in the assay with SR, 51.8 µM (inactive); in the assay with DU-145 it was > 100 µM (inactive); with U-251, > 100 µM (inactive); in the assay with SK-MEL-5 it was 31.8 µM (inactive). Moreover, the GI50 in the assay on M14 was > 100 µM (inactive); with UACC-62, 76 µM (inactive); in the assay on IGROV-1, > 100 µM (inactive); in the assay with Malme-3M it was > 100 µM (inactive); with RPMI-8226, > 100 µM (inactive); in the assay on EKVX, 59 µM (inactive). Further, the GI50 in the assay on SNB-75 was 59 µM (inactive); in the assay with NCI-H226, > 100 µM (inactive); in the assay on HL-60, 39.5 µM (inactive); in the assay with OVCAR-8 it was > 100 µM (inactive); in the assay with SK-MEL-28 it was > 100 µM (inactive); in the assay on SF-539, > 100 µM (inactive). Besides, the GI50 in the assay with NCI-H23 is 35.2 µM (inactive).
On to `O=C(O)c1c(O)c2cc(Br)ccc2oc1=O`, for which the GI50 in the assay on SW-620, in the assay with COLO 205, with SR, in the assay on DU-145, in the assay on U-251 and with SK-MEL-5 was > 100 µM (inactive) each time. The GI50 with M14, in the assay on UACC-62, in the assay on IGROV-1, in the assay with Malme-3M, with RPMI-8226 and in the assay on EKVX was > 100 µM (inactive) each time. Moreover, the GI50 with SNB-75, in the assay with NCI-H226, in the assay on HL-60, in the assay with OVCAR-8, in the assay with SK-MEL-28 and in the assay with SF-539 was > 100 µM (inactive) in each case. In the assay with NCI-H23, the GI50 is > 100 µM (inactive).
Turning to `COc1nc2ccc(COc3ccc(C(=O)O)cc3)cc2nc1OC`, the GI50 was 83.8 µM (inactive) in the assay on SW-620; > 100 µM (inactive) in the assay on COLO 205; 41.4 µM (inactive) in the assay with SR; > 100 µM (inactive) in the assay on DU-145; > 100 µM (inactive) in the assay on UO-31; 87.1 µM (inactive) in the assay with U-251. Moreover, the GI50 with SK-MEL-5 was > 100 µM (inactive); with M14, 66.1 µM (inactive); with UACC-62 it was 33.6 µM (inactive); in the assay on IGROV-1, > 100 µM (inactive); with Malme-3M, > 100 µM (inactive); in the assay with EKVX, > 100 µM (inactive). The GI50 in the assay with SNB-75 is 11.7 µM (inactive); with NCI-H226, 78 µM (inactive); in the assay with HL-60, 53.8 µM (inactive); in the assay on OVCAR-8, 36.4 µM (inactive); in the assay with SK-MEL-28, 66.4 µM (inactive); with SF-539, 45.5 µM (inactive). For the same molecule, the GI50 in the assay on NCI-H23 is > 100 µM (inactive).
For `Nc1cc(C(=O)O)nc(O)n1`, the GI50 with SW-620, in the assay on COLO 205, in the assay on SR, in the assay with DU-145, in the assay with UO-31 and with U-251 was > 100 µM (inactive) throughout. For the same molecule, the GI50 with SK-MEL-5, with M14, in the assay with UACC-62, in the assay on IGROV-1, in the assay with Malme-3M and in the assay on RPMI-8226 was > 100 µM (inactive) each time. Besides, the GI50 in the assay with EKVX, in the assay with NCI-H226, in the assay with HL-60, in the assay with OVCAR-8, in the assay on SK-MEL-28 and in the assay on NCI-H23 was > 100 µM (inactive) in each case.
Regarding `CCCCC[C@@H]1OCO[C@@]2(C)/C=C(C)\C=C/C(=O)O[C@H]([C@@H](C)[C@@H](O)[C@H](C)[C@@]3(O)C[C@@H](O[C@H]4C[C@@H](O)[C@H](O)[C@@H](C)O4)[C@H](C)[C@@H](C)O3)[C@@H](OC)/C=C\C=C(\C)C[C@@H]1[C@@H]2O` (stereo in doubt), the GI50 in the assay with SW-620, with COLO 205, in the assay with SR, in the assay with DU-145, with U-251 and in the assay with SK-MEL-5 was < 0.005 µM (active) each time. Also, the GI50 in the assay with M14, with UACC-62, in the assay with IGROV-1, in the assay with Malme-3M, in the assay with RPMI-8226 and in the assay on EKVX was < 0.005 µM (active) each time. For the same molecule, the GI50 in the assay on SNB-75 was < 0.005 µM (active); in the assay with NCI-H226, < 0.005 µM (active); in the assay with HL-60, < 0.005 µM (active); in the assay on OVCAR-8 it was < 0.005 µM (active); in the assay on SK-MEL-28 it was 0.0724 µM (active); in the assay with SF-539 it was < 0.005 µM (active). In addition, in the assay on NCI-H23, the GI50 is 0.5 µM (active).
As to `C/C(=C1/N=C(c2ccccc2)OC1=O)c1ccc(C)cc1`, the GI50 in the assay on SW-620, in the assay with COLO 205, in the assay with SR, in the assay on DU-145, in the assay with U-251 and in the assay on SK-MEL-5 was > 100 µM (inactive) in each case. The GI50 in the assay with M14 is > 100 µM (inactive); with UACC-62, > 100 µM (inactive); in the assay on IGROV-1, > 100 µM (inactive); with Malme-3M it was > 100 µM (inactive); with RPMI-8226 it was 74.1 µM (inactive); with EKVX, > 100 µM (inactive). In addition, the GI50 was > 100 µM (inactive) in the assay with NCI-H226; 45.3 µM (inactive) with HL-60; > 100 µM (inactive) in the assay with OVCAR-8; > 100 µM (inactive) in the assay on SK-MEL-28; > 100 µM (inactive) with SF-539; > 100 µM (inactive) in the assay with NCI-H23.
Regarding `Cc1ccc(C)c(COCCOCn2cc(N3CCOCC3)c(=O)[nH]c2=O)c1`, the GI50 in the assay on SW-620, with COLO 205, in the assay on SR, with DU-145, with UO-31 and in the assay with U-251 was > 100 µM (inactive) each time. Besides, the GI50 in the assay with M14, in the assay with UACC-62, in the assay on IGROV-1, in the assay with Malme-3M, with EKVX and in the assay on SNB-75 was > 100 µM (inactive) throughout. The GI50 is > 100 µM (inactive) in the assay on NCI-H226; 3.63 µM (inactive) in the assay with HL-60; > 100 µM (inactive) with OVCAR-8; > 100 µM (inactive) in the assay on SK-MEL-28; > 100 µM (inactive) in the assay with SF-539; > 100 µM (inactive) in the assay on NCI-H23.
